The text below walks through data of article PMC10041525, “New Dual Inhibitors of Bacterial Topoisomerases with Broad-Spectrum Antibacterial Activity and In Vivo Efficacy against Vancomycin-Intermediate Staphylococcus aureus” (Journal of Medicinal Chemistry, 2023).

One experiment relates to P. aeruginosa ATCC 27853. Briefly: IHMA QC MIC. It is filed as cell-based. To be noted: Pseudomonas aeruginosa, read-out: MIC.
For a further experiment, the system named is H. influenzae ATCC 49247. Put plainly: IHMA QC MIC. It is filed as cell-based. To be noted: Haemophilus influenzae, read-out: MIC. The text has this: (§1) Supplement jm2c01905_si_004.xlsx, sheet "QC" | column: MIC [µg/mL]
For another experiment, the system named is H. influenzae ATCC 49766. Put plainly: IHMA QC MIC. It counts as cell-based.
Text: as §1

The next experiment concerns S. pneumoniae ATCC 49619. Briefly: IHMA QC MIC. It counts as cell-based.
Text: as §1

In another experiment the test system is E. faecalis ATCC 29212. On the set-up: method as in earlier work. To be noted: QC range for E. faecalis ATCC 29212, ref CLSI; cited from earlier work.

Each structure is given as a SMILES string. Converted amounts (≈) assume the structure as drawn. Like-named read-outs stand apart in the source and are kept apart here.

Turning to `CC1(C)S[C@@H]2[C@H](NC(=O)[C@H](N)c3ccccc3)C(=O)N2[C@H]1C(=O)O` [Ampicillin, ampicillin], the MIC in the experiment on P. aeruginosa ATCC 27853 (ATCC27853, QC strain P. aeruginosa ATCC 27853, test date 2021-11-11) is > 32 µg/mL; in the experiment with P. aeruginosa ATCC 27853 (ATCC27853, QC strain P. aeruginosa ATCC 27853, test date 2021-11-26), > 32 µg/mL; in the experiment with H. influenzae ATCC 49247 (ATCC49247, QC strain H. influenzae ATCC 49247, test date 2021-11-11), 4 µg/mL (≈ 11.4 µM); with H. influenzae ATCC 49247 (ATCC49247, QC strain H. influenzae ATCC 49247, test date 2021-11-26), 4 µg/mL (≈ 11.4 µM); in the experiment on H. influenzae ATCC 49766 (Haemophilus influenzae, ATCC49766, QC strain H. influenzae ATCC 49766, test date 2021-11-11, read-out: MIC), 0.12 µg/mL (≈ 0.343 µM); in the experiment with H. influenzae ATCC 49766 (QC strain H. influenzae ATCC 49766, test date 2021-11-26) it was 0.12 µg/mL (≈ 0.343 µM). For the same compound, the MIC turned out to be 0.06 µg/mL (≈ 0.172 µM) against S. pneumoniae ATCC 49619 (QC strain S. pneumoniae ATCC 49619, test date 2021-11-26) and 0.06 µg/mL (≈ 0.172 µM) with S. pneumoniae ATCC 49619 (Streptococcus pneumoniae, ATCC49619, QC strain S. pneumoniae ATCC 49619, test date 2021-11-11, read-out: MIC). Further, the “MIC, CLSI Range” value in the experiment with E. faecalis ATCC 29212 is reported as 0,5 - 2 µg/mL.
